Molecules are shown by their SMILES. Where a name gives a salt, the structure may show the parent alone. A value given as a limit tells only on which side of the number the result lay.

In one assay the test system is Human primary T cells. Briefly: IL-2 ELISA, human primary T cell, anti-CD3+CD28+ (whole cell assay). In kind it is cell-based. The note with it: Homo sapiens, T-cell, 24 h, human primary T cells stimulated with anti-CD3 + anti-CD28, 24 hours. The gist of the method: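 PBMC-derived T cells, pre-expanded on αCD3/αCD28 with IL-2 and then washed free of IL-2, were preincubated with compound for 1 hr at 37° C (100,000 cells/well). They were then stimulated on 1 μg/ml αCD3 plus 5 μg/ml αCD28 for 24 h, and supernatant IL-2 was measured by ELISA. The counter-assay used 0.5 ng/ml PMA plus 0.1 μM ionomycin instead.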
(ELISA stands for enzyme-linked immunosorbent assay.)
What is called IC50 is the concentration that gives 50% inhibition. `CC1CC(Nc2nc(Nc3cccc(-n4nnnc4SCC(F)(F)F)c3)ncc2F)CC(C)N1C1CC1` (stereo not shown) [III-9, N^4-(1-cyclopropyl-2,6-dimethylpiperidin-4-yl)-5-fluoro-N2-(3-(5-(2,2,2-trifluoroethylthio)-1H-tetrazol-1-yl)phenyl)pyrimidine-2,4-diamine]: the IC50 is 250 to 500 nM.

For the compound `CC1(C)CC(Nc2nc(Nc3ccc(OCCCn4cccc4)c(OC(F)F)c3)ncc2F)CC(C)(C)N1` [Compound I-42, N2-(4-(3-(1H-pyrrol-1-yl)propoxy)-3-(difluoromethoxy)phenyl)-5-fluoro-N4-(2,2,6,6-tetramethylpiperidin-4-yl)pyrimidine-2,4-diamine], the IC50 is below 250 nM. The same measure, in the same setting: under `Cn1nnnc1-c1cc(Cl)cc(Nc2ncc(F)c(NC3CC(C)(C)NC(C)(C)C3)n2)c1` [III-134, N2-(3-chloro-5-(1-methyl-1H-tetrazol-5-yl)phenyl)-5-fluoro-N4-(2,2,6,6-tetramethylpiperidin-4-yl)pyrimidine-2,4-diamine] stands below 250 nM; under `CC1(C)CC(Nc2nc(Nc3ccc(OCCn4ccnn4)c(OC(F)F)c3)ncc2C#N)CC(C)(C)N1` [Compound I-34, 4-(2,2,6,6-tetramethylpiperidin-4-ylamino)-2-(4-(2-(1H-1,2,3-triazol-1-yl)ethoxy)-3-(difluoromethoxy)phenylamino)pyrimidine-5-carbonitrile], 500 to 1000 nM. Regarding `CC(C)Oc1ncc(Nc2ncc(C(N)=O)c(NC3CC(C)(C)N(C)C(C)(C)C3)n2)cc1-c1nnnn1C` [Compound I-128, 2-(6-isopropoxy-5-(1-methyl-1H-tetrazol-5-yl)pyridin-3-ylamino)-4-(1,2,2,6,6-pentamethylpiperidin-4-ylamino)pyrimidine-5-carboxamide], the IC50 is above 1000 nM. Turning to `CC(C)N1CCC(Oc2ccc(Nc3ncc(F)c(NC4CC(C)(C)N(C)C(C)(C)C4)n3)cc2OC(F)F)C(F)C1` (stereo not shown) [III-103, N2-(3-(difluoromethoxy)-4-(3-fluoro-1-isopropylpiperidin-4-yloxy)phenyl)-5-fluoro-N4-(1,2,2,6,6-pentamethylpiperidin-4-yl)pyrimidine-2,4-diamine trifluoroacetate salt], the IC50 lay in the range of 250 to 500 nM. For the compound `CC1(C)CC(Nc2nc(Nc3ccc(OC(C)(C)CN4CCCC4)c(OC(F)F)c3)ncc2F)CC(C)(C)N1` [Compound I-124, N2-(4-(2-methyl-1-(pyrrolidin-1-yl)propan-2-yloxy)-3-(difluoromethoxy)phenyl)-5-fluoro-N4-(2,2,6,6-tetramethylpiperidin-4-yl)pyrimidine-2,4-diamine], the IC50 lay within 500 to 1000 nM.

Take `CN1C(C)(C)CC(Nc2nc(Nc3ccc(OC4CCN(CCOCc5ccccc5)CC4)c(F)c3)ncc2F)CC1(C)C` [III-54, N2-(4-(1-(2-(benzyloxy)ethyl)piperidin-4-yloxy)-3-fluorophenyl)-5-fluoro-N4-(1,2,2,6,6-pentamethylpiperidin-4-yl)pyrimidine-2,4-diamine]: the IC50 was in the range of 500 to 1000 nM. Same read-out and setting: under `CC1(C)CC(Nc2nc(Nc3cc(F)c(OC4CCN(CCO)CC4)c(F)c3)ncc2F)CC(C)(C)N1` [III-59, 2-(4-(2,6-difluoro-4-(5-fluoro-4-(2,2,6,6-tetramethylpiperidin-4-ylamino)pyrimidin-2-ylamino)phenoxy)piperidin-1-yl)ethanol] stands above 1000 nM; under `CN1C(C)(C)CC(Nc2nc(Nc3cc(F)cc(OCCN4CCCC4=O)c3)ncc2F)CC1(C)C` [Compound I-38, 1-(2-(3-(4-(1,2,2,6,6-pentamethylpiperidin-4-ylamino)-5-fluoropyrimidin-2-ylamino)-5-fluorophenoxy)ethyl)pyrrolidin-2-one], 500 to 1000 nM; under `CCNC(=O)N1CCCC(Oc2c(F)cc(Nc3ncc(F)c(NC4CC(C)(C)N(C)C(C)(C)C4)n3)cc2F)CC1` (stereo not shown) [III-83, 4-(2,6-difluoro-4-(5-fluoro-4-(1,2,2,6,6-pentamethylpiperidin-4-ylamino)pyrimidin-2-ylamino)phenoxy)-N-ethylazepane-1-carboxamide], 500 to 1000 nM. Same read-out and setting: under `Cc1ccc(Nc2ncc(F)c(NC3CC(C)N(C4CC4)C(C)C3)n2)cc1-n1cnnn1` (stereo not shown) [III-6, N^4-(1-cyclopropyl-2,6-dimethylpiperidin-4-yl)-5-fluoro-N2-(4-methyl-3-(1H-tetrazol-1-yl)phenyl)pyrimidine-2,4-diamine] stands 250 to 500 nM; under `CN1C(C)(C)CC(Nc2nc(Nc3cc(F)cc(-c4nnnn4C)c3)ncc2F)CC1(C)C` [III-139, 5-fluoro-N2-(3-fluoro-5-(1-methyl-1H-tetrazol-5-yl)phenyl)-N4-(1,2,2,6,6-pentamethylpiperidin-4-yl)pyrimidine-2,4-diamine], below 250 nM; under `CN1C(C)(C)CC(Nc2nc(Nc3ccc(OCCn4cncn4)c(OC(F)F)c3)ncc2F)CC1(C)C` [Compound I-27, N2-(4-(2-(1H-1,2,4-triazol-1-yl)ethoxy)-3-(difluoromethoxy)phenyl)-5-fluoro-N4-(1,2,2,6,6-pentamethylpiperidin-4-yl)pyrimidine-2,4-diamine], below 250 nM. On the same count and under the same terms, under `CC(C)Oc1ncc(Nc2ncc(C#N)c(NC3CC(C)(C)N(C)C(C)(C)C3)n2)cc1-c1nnnn1C` [Compound I-129, 2-(6-isopropoxy-5-(1-methyl-1H-tetrazol-5-yl)pyridin-3-ylamino)-4-(1,2,2,6,6-pentamethylpiperidin-4-ylamino)pyrimidine-5-carbonitrile] stands 500 to 1000 nM; under `CC(C)N1CCC(Oc2ccc(Nc3ncc(F)c(NC4CC(C)(C)NC(C)(C)C4)n3)cc2Cl)CC1` [III-98, N2-(3-chloro-4-(1-isopropylpiperidin-4-yloxy)phenyl)-5-fluoro-N4-(2,2,6,6-tetramethylpiperidin-4-yl)pyrimidine-2,4-diamine], below 250 nM. As for `CN1C(C)(C)CC(Nc2nc(Nc3cnc(OCCN4CCCC4)c(OC(F)F)c3)ncc2F)CC1(C)C` [Compound I-142, N2-(5-(difluoromethoxy)-6-(2-(pyrrolidin-1-yl)ethoxy)pyridin-3-yl)-5-fluoro-N4-(1,2,2,6,6-pentamethylpiperidin-4-yl)pyrimidine-2,4-diamine], the IC50 was above 1000 nM. `CN1C(C)(C)CC(Nc2nc(Nc3ccc4c(c3)OCC(C(=O)N3CCOCC3)O4)ncc2F)CC1(C)C` (stereo not shown) [II-2, (6-(4-(1,2,2,6,6-pentamethylpiperidin-4-ylamino)-5-fluoropyrimidin-2-ylamino)-2,3-dihydrobenzo[b][1,4]dioxin-2-yl)(morpholino)methanone]: the IC50 is above 1000 nM.

For `CN1C(C)(C)CC(Nc2nc(Nc3cc(F)c(OC4CCN(S(C)(=O)=O)CC4)c(F)c3)ncc2F)CC1(C)C` [III-78, N2-(3,5-difluoro-4-(1-(methylsulfonyl)piperidin-4-yloxy)phenyl)-5-fluoro-N4-(1,2,2,6,6-pentamethylpiperidin-4-yl)pyrimidine-2,4-diamine], the IC50 was in the range of 500 to 1000 nM. As for `CN1C(C)(C)CC(Nc2nc(Nc3cccc(-n4ccc(C(F)(F)F)n4)c3)ncc2F)CC1(C)C` [Compound I-2, 5-fluoro-N2-(3-(3-(trifluoromethyl)-1H-pyrazol-1-yl)phenyl)-N4-(1,2,2,6,6-pentamethylpiperidin-4-yl)pyrimidine-2,4-diamine], the IC50 was above 1000 nM. Still for that read-out and setting: to `CC1(C)CC(Nc2nc(Nc3ccc(OC4CCN(S(C)(=O)=O)CC4)c(OC(F)F)c3)ncc2F)CC(C)(C)N1` [III-21, N2-(3-(difluoromethoxy)-4-(1-(methylsulfonyl)piperidin-4-yloxy)phenyl)-5-fluoro-N4-(2,2,6,6-tetramethylpiperidin-4-yl)pyrimidine-2,4-diamine] belongs 500 to 1000 nM. Take `CC(=O)N1CCC(Oc2c(F)cc(Nc3ncc(F)c(NC4CC(C)(C)N(C)C(C)(C)C4)n3)cc2F)CC1` [III-91, 1-(4-(2,6-difluoro-4-(5-fluoro-4-(1,2,2,6,6-pentamethylpiperidin-4-ylamino)pyrimidin-2-ylamino)phenoxy)piperidin-1-yl)ethanone]: the IC50 fell in the range of 500 to 1000 nM. Turning to `COc1cc(Nc2ncc(F)c(NC3CC(C)N(C4CC4)C(C)C3)n2)cc(-n2cnnn2)c1` (stereo not shown) [III-7, N^4-(1-cyclopropyl-2,6-dimethylpiperidin-4-yl)-5-fluoro-N2-(3-methoxy-5-(1H-tetrazol-1-yl)phenyl)pyrimidine-2,4-diamine], the IC50 is below 250 nM. Same read-out and setting: to `CN1C(C)(C)CC(Nc2nc(Nc3cc(F)c(OC4CCN(CCO)CC4)c(F)c3)ncc2F)CC1(C)C` [III-60, 2-(4-(2,6-difluoro-4-(5-fluoro-4-(1,2,2,6,6-pentamethylpiperidin-4-ylamino)pyrimidin-2-ylamino)phenoxy)piperidin-1-yl)ethanol] belongs 250 to 500 nM. Still for that read-out and setting: under `CN1C(C)(C)CC(Nc2nc(Nc3ccc(OC4CCN(CC(F)(F)F)CC4)c(OC(F)F)c3)ncc2F)CC1(C)C` [Compound I-145, N2-(4-(1-(2,2,2-trifluoroethyl)piperidin-4-yloxy)-3-(difluoromethoxy)phenyl)-5-fluoro-N4-(1,2,2,6,6-pentamethylpiperidin-4-yl)pyrimidine-2,4-diamine] stands 250 to 500 nM; under `CC(=O)N1CCC(Oc2ccc(Nc3ncc(F)c(NC4CC(C)(C)N(C)C(C)(C)C4)n3)cc2F)CC1` [III-12, 1-(4-(2-fluoro-4-(5-fluoro-4-(1,2,2,6,6-pentamethylpiperidin-4-ylamino)pyrimidin-2-ylamino)phenoxy)piperidin-1-yl)ethanone], above 1000 nM; under `CC1(C)CC(Nc2nc(Nc3ccc(OCCCN4CCOCC4)c(OC(F)F)c3)ncc2F)CC(C)(C)N1CC(F)(F)F` [Compound I-66, N2-(4-(3-morpholinopropoxy)-3-(difluoromethoxy)phenyl)-5-fluoro-N4-(1-(2,2,2-trifluoroethyl)-2,2,6,6-tetramethylpiperidin-4-yl)pyrimidine-2,4-diamine], above 1000 nM.

Staying with this assay, now noted: human primary T cells stimulated with anti-CD3 + anti-CD28, 24 hours.
For `CCc1nnnn1-c1cc(Nc2ncc(C(N)=O)c(NC3CC(C)(C)NC(C)(C)C3)n2)ccc1OC(F)F` [Compound I-83, 5-aminocarbonyl-N2-[4-difluoromethoxy-3-(5-ethyl-1H-tetrazol-1-yl)]phenyl-N4-(2,2,6,6-tetramethylpiperidin-4-yl)-2,4-pyrimidinediamine], the IC50 is above 1000 nM.

These data come from patent publication US9149475B2, “Protein kinase C inhibitors and uses thereof” (Rigel Pharmaceuticals, Inc., priority 2009, dated 2015).
